Experimental data as given in patent US20160158200A1, “Combinations of Hepatitis C Virus Inhibitors” (priority 2013, published 2016).

These molecules were tested on HCV genotype-1a variant with glutamine 30 changed to glutamate in the NS5A protein. Settings: test compound titrated with BMS-790052 fixed at 200 nM; genotype 1a Q30E replicon.
Format: cell-based
In short: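 Synergy was assessed by combining several fixed amounts of an NS5A-targeting compound with a titration of the second compound of interest.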
For `CC1(C(=O)NC(c2nc(-c3ccc(-c4ccc(-c5c[nH]c(C(NC(=O)C6(C)CCCO6)C(C)(C)C)n5)cc4)cc3)c[nH]2)C(C)(C)C)CCCO1.O=C(O)C(F)(F)F.O=C(O)C(F)(F)F` (mixture of isomers) [Compound L-69], the “Fold-Synergistic 1a (Q30E)” value was over 100 fold.
With `CC(C)(C)[C@H](NC(=O)C1(C(F)(F)F)CCC1)c1nc(-c2ccc(-c3ccc(-c4c[nH]c([C@@H](NC(=O)C5(C(F)(F)F)CCC5)C(C)(C)C)n4)cc3)cc2)c[nH]1` [Compound L-129] the “Fold-Synergistic 1a (Q30E)” value was over 100 fold.
`CC(C)(C)[C@H](NC(=O)C(C)(C)C1(O)CCC(F)(F)CC1)c1nc(-c2ccc(-c3ccc(-c4c[nH]c([C@@H](NC(=O)C(C)(C)C5(O)CCC(F)(F)CC5)C(C)(C)C)n4)cc3)cc2)c[nH]1` [Compound P-149] was tested, and the “Fold-Synergistic 1a (Q30E)” value was over 100 fold.
With `O=C(OC1CCCC1)N1CCC[C@H]1c1ncc(-c2ccc(-c3ccc(-c4cnc([C@@H]5CCCN5C(=O)OC5CCCC5)[nH]4)cc3)cc2)[nH]1` [Compound S-225] the “Fold-Synergistic 1a (Q30E)” value was over 10 fold.
In the case of `C#CCOC(=O)N[C@@H](C(=O)N[C@H](c1ncc(-c2ccc(-c3ccc(-c4cnc([C@@H](NC(=O)[C@H](NC(=O)OCC#C)C(C)C)C(C)C)[nH]4)cc3)cc2)[nH]1)C(C)C)C(C)C` [Compound S-252], the “Fold-Synergistic 1a (Q30E)” value was over 100 fold.
`COC(=O)N1C2CCC1(C(=O)N[C@H](c1nc(-c3ccc(-c4ccc(-c5c[nH]c([C@@H](NC(=O)C67CCC(CC6)N7C(=O)OC)C(C)(C)C)n5)cc4)cc3)c[nH]1)C(C)(C)C)CC2.O=C(O)C(F)(F)F.O=C(O)C(F)(F)F` [Compound W-117] was tested, and the “Fold-Synergistic 1a (Q30E)” value was over 100 fold.
In the case of `CC1(C)CCCC(C)(C(=O)NC(c2nc(-c3ccc(-c4ccc(-c5c[nH]c(C(NC(=O)C6(C)CCCC(C)(C)O6)C(C)(C)C)n5)cc4)cc3)c[nH]2)C(C)(C)C)O1` (mixture of isomers) [Compound W-163], the “Fold-Synergistic 1a (Q30E)” value was over 100 fold.
With `COc1ccc(C2(C(=O)N[C@H](c3ncc(-c4ccc(-c5ccc(-c6cnc([C@@H](NC(=O)C7(c8ccc(OC)cc8)CCCC7)C(C)C)[nH]6)cc5)cc4)[nH]3)C(C)C)CCCC2)cc1` [Compound S-24] the “Fold-Synergistic 1a (Q30E)” value was over 100 fold.
`COC(C)(COCc1ccccc1)C(=O)N[C@H](c1nc(-c2ccc(-c3ccc(-c4c[nH]c([C@@H](NC(=O)C(C)(COCc5ccccc5)OC)C(C)(C)C)n4)cc3)cc2)c[nH]1)C(C)(C)C.O=C(O)C(F)(F)F.O=C(O)C(F)(F)F` (single isomer, unassigned) [Compound W-230] was tested, and the “Fold-Synergistic 1a (Q30E)” value was over 100 fold.
For `CC(C)C(NC(=O)C(=O)N(CC(F)(F)F)C(C)C)c1nc(-c2ccc(-c3ccc(-c4c[nH]c(C(NC(=O)C(=O)N(CC(F)(F)F)C(C)C)C(C)C)n4)cc3)cc2)c[nH]1` (stereo not shown) [Compound W-65], the “Fold-Synergistic 1a (Q30E)” value was over 100 fold.
For `CC1(C)CCN(C(=O)C(=O)N2C(C)(C)CCCC2(C)C)C1c1nc(-c2ccc(-c3ccc(-c4c[nH]c(C5N(C(=O)C(=O)N6C(C)(C)CCCC6(C)C)CCC5(C)C)n4)cc3)cc2)c[nH]1.O=C(O)C(F)(F)F.O=C(O)C(F)(F)F` (stereo not shown) [Compound W-246], the “Fold-Synergistic 1a (Q30E)” value was over 100 fold.
With `CC(C)(C)[C@H](NC(=O)C(=O)N1CCC(F)(F)C1)c1nc(-c2ccc(-c3ccc(-c4c[nH]c([C@@H](NC(=O)C(=O)N5CCC(F)(F)C5)C(C)(C)C)n4)cc3)cc2)c[nH]1` [Compound W-22] the “Fold-Synergistic 1a (Q30E)” value was over 100 fold.
`CC(C)C(NC(=O)C(=O)N(C(C)C)C1CC1)c1nc(-c2ccc(-c3ccc(-c4c[nH]c(C(NC(=O)C(=O)N(C(C)C)C5CC5)C(C)C)n4)cc3)cc2)c[nH]1` (stereo not shown) [Compound W-55] was tested, and the “Fold-Synergistic 1a (Q30E)” value was over 100 fold.
With `CC(C)C(NC(=O)C1CC(O)CN1C(=O)OC(C)(C)C)c1nc(-c2ccc(-c3ccc(-c4c[nH]c(C(NC(=O)C5CC(O)CN5C(=O)OC(C)(C)C)C(C)C)n4)cc3)cc2)c[nH]1` (stereo not shown) [Compound W-100] the “Fold-Synergistic 1a (Q30E)” value was over 100 fold.
With `CC(C)[C@H](NC(=O)C1CCCCO1)c1ncc(-c2ccc(-c3ccc(-c4cnc([C@@H](NC(=O)C5CCCCO5)C(C)C)[nH]4)cc3)cc2)[nH]1` (single isomer, unassigned) [Compound Y-55] the “Fold-Synergistic 1a (Q30E)” value was over 10 fold.
In the case of `CC(C)[C@H](NC(=O)c1cccc(Cl)c1)c1ncc(-c2ccc(-c3ccc(-c4cnc([C@@H](NC(=O)c5cccc(Cl)c5)C(C)C)[nH]4)cc3)cc2)[nH]1` [Compound S-74], the “Fold-Synergistic 1a (Q30E)” value was over 100 fold.
`CC(C)[C@H](NC(=O)C(C)(C)F)c1nc(-c2ccc(-c3ccc(-c4c[nH]c([C@@H](NC(=O)C(C)(C)F)C(C)C)n4)c(F)c3)cc2)c[nH]1.O=C(O)C(F)(F)F` [Compound N-90] was tested, and the “Fold-Synergistic 1a (Q30E)” value was over 100 fold.
`CC(=O)N(C)C1(C(=O)N[C@H](c2nc(-c3ccc(-c4ccc(-c5c[nH]c([C@@H](NC(=O)C6(N(C)C(C)=O)CCC6)C(C)(C)C)n5)cc4)cc3)c[nH]2)C(C)(C)C)CCC1.O=C(O)C(F)(F)F.O=C(O)C(F)(F)F` [Compound L-12] was tested, and the “Fold-Synergistic 1a (Q30E)” value was over 100 fold.
With `CC(C)[C@H](NC(=O)C1(c2ccc(Cl)cc2)CCCC1)c1ncc(-c2ccc(-c3ccc(-c4cnc([C@@H](NC(=O)C5(c6ccc(Cl)cc6)CCCC5)C(C)C)[nH]4)cc3)cc2)[nH]1` [Compound S-2] the “Fold-Synergistic 1a (Q30E)” value was over 100 fold.
`CC(C)(C)OC(=O)N1CCC(C)(C)[C@@H]1C(=O)N[C@H](c1nc(-c2ccc(-c3ccc(-c4c[nH]c([C@@H](NC(=O)[C@@H]5N(C(=O)OC(C)(C)C)CCC5(C)C)C(C)(C)C)n4)cc3)cc2)c[nH]1)C(C)(C)C` [Compound W-211] was tested, and the “Fold-Synergistic 1a (Q30E)” value was over 100 fold.
`CC(C)(C)C(NC(=O)C1(NC(=O)C2CC2(F)F)CCCCC1)c1nc(-c2ccc(-c3ccc(-c4c[nH]c(C(NC(=O)C5(NC(=O)C6CC6(F)F)CCCCC5)C(C)(C)C)n4)cc3)cc2)c[nH]1` (mixture of isomers) [Compound W-277] was tested, and the “Fold-Synergistic 1a (Q30E)” value was over 100 fold.
With `CC(C)(C)[C@H](NC(=O)C1C2CCOC21)c1nc(-c2ccc(-c3ccc(-c4cnc([C@@H](NC(=O)C5C6CCOC65)C(C)(C)C)[nH]4)cc3)cc2)c[nH]1` (single isomer, unassigned) [Compound B-164] the “Fold-Synergistic 1a (Q30E)” value was over 100 fold.
For `CC(C)(C)[C@H](NC(=O)C1CCOC1)c1nc(-c2ccc(-c3ccc(-c4c[nH]c([C@@H](NC(=O)C5CCOC5)C(C)(C)C)n4)cc3)cc2)c[nH]1` (stereo partly shown) [Compound W-129], the “Fold-Synergistic 1a (Q30E)” value was over 10 fold.
In the case of `CC(C)CC(=O)N[C@H](c1ncc(-c2ccc(C#Cc3ccc(-c4cnc([C@@H](NC(=O)CC(C)C)C(C)(C)C)[nH]4)cc3)cc2)[nH]1)C(C)(C)C` [Compound N-3], the “Fold-Synergistic 1a (Q30E)” value was over 10 fold.
`CC(C)[C@H](NC(=O)c1nn(C)c2ccccc12)c1ncc(-c2ccc(-c3ccc(-c4cnc([C@@H](NC(=O)c5nn(C)c6ccccc56)C(C)C)[nH]4)cc3)cc2)[nH]1` [Compound P-96] was tested, and the “Fold-Synergistic 1a (Q30E)” value was over 100 fold.
With `CC(C)(C)[C@H](NC(=O)C(C)(C)C(F)(F)F)c1nc(-c2ccc(-c3ccc(-c4c[nH]c([C@@H](NC(=O)C(C)(C)C(F)(F)F)C(C)(C)C)n4)cc3)cc2)c[nH]1` [Compound P-31] the “Fold-Synergistic 1a (Q30E)” value was over 100 fold.
For `CC(C)[C@H](NC(=O)c1cc(Cl)ccc1F)c1nc(-c2ccc3c(c2)CCc2cc(-c4c[nH]c([C@@H](NC(=O)c5cc(Cl)ccc5F)C(C)C)n4)ccc2-3)c[nH]1.O=C(O)C(F)(F)F` [Compound N-76], the “Fold-Synergistic 1a (Q30E)” value was over 100 fold.
For `CC(C)[C@H](NC(=O)Cc1cnccn1)c1ncc(-c2ccc(-c3ccc(-c4cnc([C@@H](NC(=O)Cc5cnccn5)C(C)C)[nH]4)cc3)cc2)[nH]1` [Compound S-60], the “Fold-Synergistic 1a (Q30E)” value was under 10 fold.
